# Results published in ChEMBL document CHEMBL3044672, “N9- and N7-(Chloromethyl Phenymethyl)Chloropurine Derivatives from , '-Dichloroxylenes: Synthesis and Anticancer Activity” (2005).
# What was measured:
# Assay type in all cases: functional
# MCF7 = assay: Cytotoxicity against Homo sapiens (human) MCF7 cells after 48 hr by sulforhodamine B assay; settings: MCF7, 48 h
# OVCAR-8 = assay: Cytotoxicity against Homo sapiens (human) OVCAR8 cells after 48 hr by sulforhodamine B assay; settings: OVCAR-8, 48 h
# HOP-62 = assay: Cytotoxicity against Homo sapiens (human) HOP62 cells after 48 hr by sulforhodamine B assay; settings: HOP-62, 48 h; for CC50: read-out: LC50 (the source's name)
# SF-268 [1] = assay: Cytotoxicity against Homo sapiens (human) SF268 cells assessed as cell growth at 10^-4 M after 48 hr by […] assay; settings: SF-268, 48 h, read-out: Activity
# EKVX = assay: Cytotoxicity against Homo sapiens (human) EKVX cells after 48 hr by sulforhodamine B assay; settings: for CC50: read-out: LC50 (the source's name)
# RPMI-8226 = assay: Cytotoxicity against Homo sapiens (human) RPMI8226 cells after 48 hr by sulforhodamine B assay; settings: RPMI-8226, 48 h
# K562 = assay: Cytotoxicity against Homo sapiens (human) K562 cells after 48 hr by sulforhodamine B assay; settings: K562, 48 h; for CC50: read-out: LC50 (the source's name)
# RXF 393 = assay: Cytotoxicity against Homo sapiens (human) RXF393 cells after 48 hr by sulforhodamine B assay; settings: RXF 393, 48 h
# NCI-H460 = assay: Cytotoxicity against Homo sapiens (human) NCI-H460 cells assessed as cell growth at 10^-4 M after 48 hr by Alamar blue assay; settings: NCI-H460, 48 h, read-out: Activity
# MDA-MB-231 = assay: Cytotoxicity against Homo sapiens (human) MDA-MB-231 cells after 48 hr by sulforhodamine B assay; settings: MDA-MB-231, 48 h
# SK-MEL-5 = assay: Cytotoxicity against Homo sapiens (human) SK-MEL-5 cells after 48 hr by sulforhodamine B assay; settings: SK-MEL-5, 48 h
# SF-268 [2] = assay: Cytotoxicity against Homo sapiens (human) SF268 cells after 48 hr by sulforhodamine B assay; settings: SF-268, 48 h
# LOX IMVI = assay: Cytotoxicity against Homo sapiens (human) LOXIMVI cells after 48 hr by sulforhodamine B assay
# SK-OV-3 = assay: Cytotoxicity against Homo sapiens (human) SKOV3 cells after 48 hr by sulforhodamine B assay; settings: SK-OV-3, 48 h
# BT-549 = assay: Cytotoxicity against Homo sapiens (human) BT549 cells after 48 hr by sulforhodamine B assay; settings: BT-549, 48 h
# UACC-62 = assay: Cytotoxicity against Homo sapiens (human) UACC62 cells after 48 hr by sulforhodamine B assay; settings: UACC-62, 48 h
# NCI-H23 = assay: Cytotoxicity against Homo sapiens (human) NCI-H23 cells after 48 hr by sulforhodamine B assay; settings: NCI-H23, 48 h; for CC50: read-out: LC50 (the source's name)
# KM12 = assay: Cytotoxicity against Homo sapiens (human) KM12 cells after 48 hr by sulforhodamine B assay; settings: KM12, 48 h; for CC50: read-out: LC50 (the source's name)
# HT-29 = assay: Cytotoxicity against Homo sapiens (human) HT-29 cells after 48 hr by sulforhodamine B assay; settings: HT-29, 48 h; for CC50: read-out: LC50 (the source's name)
# OVCAR-4 = assay: Cytotoxicity against Homo sapiens (human) OVCAR4 cells after 48 hr by sulforhodamine B assay; settings: OVCAR-4, 48 h
# PC-3 = assay: Cytotoxicity against Homo sapiens (human) PC3 cells after 48 hr by sulforhodamine B assay; settings: PC-3, 48 h
# NCI-H522 = assay: Cytotoxicity against Homo sapiens (human) NCI-H522 cells after 48 hr by sulforhodamine B assay; settings: NCI-H522, 48 h; for CC50: read-out: LC50 (the source's name)
# SN12C = assay: Cytotoxicity against Homo sapiens (human) SN12C cells after 48 hr by sulforhodamine B assay
# SF-539 = assay: Cytotoxicity against Homo sapiens (human) SF539 cells after 48 hr by sulforhodamine B assay; settings: SF-539, 48 h
# SNB-75 = assay: Cytotoxicity against Homo sapiens (human) SNB75 cells after 48 hr by sulforhodamine B assay; settings: SNB-75, 48 h
# COLO 205 = assay: Cytotoxicity against Homo sapiens (human) COLO205 cells after 48 hr by sulforhodamine B assay; settings: COLO 205, 48 h
# [3] = read-out: LC50 (the source's name)
smiles,measurement,setting,value
ClCc1ccccc1Cn1cnc2c(Cl)nc(Cl)nc21,GI50,MCF7,810 nM
same,LC50 (concentration killing 50% of cells),MCF7,> 100000 nM
same,TGI,MCF7,1820 nM
same,GI50,OVCAR-8,1230 nM
same,LC50 (concentration killing 50% of cells),OVCAR-8,6450 nM
same,TGI,OVCAR-8,2810 nM
same,GI50,HOP-62,2040 nM
same,TGI,HOP-62,3630 nM
same,CC50,HOP-62,6450 nM
same,growth at 100 µM,SF-268 [1],0%
same,GI50,EKVX,1770 nM
same,TGI,EKVX,3230 nM
same,CC50,EKVX,5880 nM
same,GI50,RPMI-8226,380 nM
same,TGI,RPMI-8226,1540 nM
same,GI50,K562,150 nM
same,TGI,K562,370 nM
same,CC50,K562,910 nM
same,GI50,RXF 393,100 nM
same,TGI,RXF 393,490 nM
same,growth at 100 µM,NCI-H460,0%
same,GI50,MDA-MB-231,330 nM
same,LC50,MDA-MB-231,3980 nM
same,TGI,MDA-MB-231,1380 nM
same,GI50,SK-MEL-5,420 nM
same,LC50,SK-MEL-5,4260 nM
same,TGI,SK-MEL-5,1540 nM
same,GI50,SF-268 [2],1770 nM
same,TGI,SF-268 [2],4160 nM
same,GI50,LOX IMVI,150 nM
same,LC50,LOX IMVI,850 nM
same,TGI,LOX IMVI,360 nM
same,GI50,SK-OV-3,1820 nM
same,LC50,SK-OV-3,6910 nM
same,TGI,SK-OV-3,3540 nM
same,GI50,BT-549,450 nM
same,LC50 (50% lethal concentration),BT-549,4160 nM
same,TGI,BT-549,1470 nM
same,GI50,UACC-62,1310 nM
same,LC50 (concentration causing 50% net cell kill),UACC-62,5240 nM
same,TGI,UACC-62,2630 nM
same,GI50,NCI-H23,1510 nM
same,TGI,NCI-H23,3090 nM
same,CC50,NCI-H23,6310 nM
same,GI50,KM12,1470 nM
same,TGI,KM12,2950 nM
same,CC50,KM12,5880 nM
same,GI50,HT-29,420 nM
same,TGI,HT-29,> 100000 nM
same,CC50,HT-29,> 100000 nM
same,GI50,OVCAR-4,1770 nM
same,TGI,OVCAR-4,3630 nM
same,GI50,PC-3,440 nM
same,LC50 (concentration causing 50% cell kill),PC-3,5120 nM
same,TGI,PC-3,1620 nM
same,GI50,NCI-H522,580 nM
same,TGI,NCI-H522,1990 nM
same,CC50,NCI-H522,6760 nM
same,GI50,SN12C,720 nM
same,LC50 (50% lethal concentration),SN12C,4670 nM
same,TGI,SN12C,2040 nM
same,GI50,SF-539,1470 nM
same,LC50 (concentration killing 50% of cells),SF-539,5620 nM
same,TGI,SF-539,2880 nM
same,GI50,SNB-75,1540 nM
same,TGI,SNB-75,3540 nM
ClCc1ccccc1Cn1cnc2nc(Cl)nc(Cl)c21,GI50,MCF7,1040 nM
same,LC50 (concentration killing 50% of cells),MCF7,> 100000 nM
same,TGI,MCF7,2570 nM
same,GI50,OVCAR-8,2750 nM
same,LC50 (concentration killing 50% of cells),OVCAR-8,75800 nM
same,TGI,OVCAR-8,7070 nM
same,GI50,HOP-62,2690 nM
same,TGI,HOP-62,5490 nM
same,CC50,HOP-62,16600 nM
same,growth at 100 µM,SF-268 [1],0%
same,GI50,EKVX,1730 nM
same,TGI,EKVX,3230 nM
same,CC50,EKVX,6020 nM
same,GI50,RPMI-8226,210 nM
same,TGI,RPMI-8226,630 nM
same,GI50,K562,250 nM
same,TGI,K562,690 nM
same,CC50,K562,> 100000 nM
same,GI50,RXF 393,1 nM
same,TGI,RXF 393,1900 nM
same,CC50,RXF 393; [3],6450 nM
same,growth at 100 µM,NCI-H460,0%
same,GI50,MDA-MB-231,300 nM
same,LC50,MDA-MB-231,3230 nM
same,TGI,MDA-MB-231,910 nM
same,GI50,SK-MEL-5,740 nM
same,LC50,SK-MEL-5,5490 nM
same,TGI,SK-MEL-5,2180 nM
same,GI50,SF-268 [2],3010 nM
same,TGI,SF-268 [2],24500 nM
same,CC50,SF-268 [2]; [3],> 100000 nM
same,GI50,LOX IMVI,160 nM
same,LC50,LOX IMVI,720 nM
same,TGI,LOX IMVI,350 nM
same,GI50,SK-OV-3,5880 nM
same,LC50,SK-OV-3,56200 nM
same,TGI,SK-OV-3,20900 nM
same,GI50,BT-549,1340 nM
same,LC50 (50% lethal concentration),BT-549,7070 nM
same,TGI,BT-549,3090 nM
same,GI50,UACC-62,1200 nM
same,LC50 (concentration causing 50% net cell kill),UACC-62,6760 nM
same,TGI,UACC-62,2810 nM
same,GI50,COLO 205,350 nM
same,TGI,COLO 205,> 100000 nM
same,CC50,COLO 205; [3],> 100000 nM
same,GI50,NCI-H23,19000 nM
same,TGI,NCI-H23,40700 nM
same,CC50,NCI-H23,87100 nM
same,GI50,KM12,11700 nM
same,TGI,KM12,25700 nM
same,CC50,KM12,56200 nM
same,GI50,HT-29,400 nM
same,TGI,HT-29,> 100000 nM
same,CC50,HT-29,> 100000 nM
same,GI50,OVCAR-4,2130 nM
same,LC50 (concentration killing 50% of cells),OVCAR-4,> 100000 nM
same,TGI,OVCAR-4,5120 nM
same,GI50,PC-3,750 nM
same,TGI,PC-3,2570 nM
same,GI50,NCI-H522,2950 nM
same,TGI,NCI-H522,7240 nM
same,CC50,NCI-H522,> 100000 nM
same,GI50,SN12C,1170 nM
same,LC50 (50% lethal concentration),SN12C,5620 nM
same,TGI,SN12C,2570 nM
same,GI50,SF-539,2130 nM
same,LC50 (concentration killing 50% of cells),SF-539,8310 nM
same,TGI,SF-539,4260 nM
same,GI50,SNB-75,1900 nM
same,TGI,SNB-75,4460 nM
same,CC50,SNB-75; [3],> 100000 nM
